# Test results taken from PMC10914731, “Homo-BacPROTAC-induced degradation of ClpC1 as a strategy against drug-resistant mycobacteria” (Nature Communications, 2024).
# Several values for one entry are separate records, joined by “and”; a condition that tells them apart may be missing. Identical values can stand only once. Like-named read-outs stand apart in the source and are kept apart here. *1 amine or outer side, *2 acyl side, *3 side chain or, on linkers, in order; H or OH if unused. Where a SMILES comes first, the peptide text is derived from it. [ ]: non-standard residue; d: D form. X1 = C#CCn1cc(C[C@H](N[*:1])C(=O)[*:2])c2ccccc21; NMeLeu(5-OH,4R) = CN[C@@H](C[C@@H](C)CO)C(=O)O; Phe(βR-OMe) = CO[C@H](c1ccccc1)[C@H](N)C(=O)O; NMeL = CN[C@@H](CC(C)C)C(=O)O
# What was measured:
# [1] = test system: replicating Mtb H37Rv cells; experiment: Resazurin growth assay, replicating Mtb H37Rv (Supplementary Fig. 2); assay type: cell-based, Mycobacterium tuberculosis; conditions: three replicate columns
# [2] = test system: Msm 607; experiment: microbe, parasite or virus in culture; assay type: cell-based
# [3] = assay type: in vitro ADME, Mice
# Method in brief: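 Clearance values are expressed as % of liver blood flow, derived from first-order half-lives using the well-stirred liver model. Depletion of 1 µmol/l compound is followed by HPLC-MS/MS in NADPH-supplemented microsomes (0.5 mg/ml) at 37 °C, pH 7.5.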
# [4] = test system: Staphylococcus aureus; experiment: MIC ESKAPES panel, Staphylococcus aureus; assay type: cell-based
# Protocol: (§1) Minimum inhibitory concentration (MIC) against ESKAPES panel of Gram positive and Gram negative pathogens (Enterococcus faecium, Staphylococcus aureus, Klebsiella pneumoniae, Acinetobacter baumannii, Pseudomonas aeruginosa, Enterobacter cloacae and Salmonella typhimurium [ESKAPES panel]) were determined at the FNDR by the standard broth dilution method [CLSI, M100]. […] Mueller Hinton broth (MHB) medium was used to grow ESKAPES panel strains. The individual cultures were added as 200 μL (inoculum of 3–7 × 10^5 cfu/ml) to the respective assay plates in each well to all columns, except the media control (200 μL of medium). […] The assay plates were incubated at 37 °C, and the results were noted on the 2nd day as turbidometric readout. The clear wells indicated inhibition of growth, while the turbid wells indicated uninhibited growth.
# [5] = molecular target: His6-tagged ClpC1-NTD substrate, M. smegmatis ClpC1P1P2 (UniProt A0R574+P9WPC9); experiment: biochemical; assay type: biochemical; conditions: for DC50: Msm; for % Response / ClpC1-NTD peak area: Figure 4a source data, well replicates
# Sequence of His6-tagged ClpC1-NTD substrate, M. smegmatis ClpC1P1P2 (P9WPC9 1-156, looked up, natural form): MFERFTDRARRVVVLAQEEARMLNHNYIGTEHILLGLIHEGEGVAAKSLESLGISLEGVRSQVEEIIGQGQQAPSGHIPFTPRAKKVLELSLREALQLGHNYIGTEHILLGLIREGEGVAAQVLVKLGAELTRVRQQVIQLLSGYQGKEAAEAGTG
# Sequence of His6-tagged ClpC1-NTD substrate, M. smegmatis ClpC1P1P2 (A0R574 whole entry): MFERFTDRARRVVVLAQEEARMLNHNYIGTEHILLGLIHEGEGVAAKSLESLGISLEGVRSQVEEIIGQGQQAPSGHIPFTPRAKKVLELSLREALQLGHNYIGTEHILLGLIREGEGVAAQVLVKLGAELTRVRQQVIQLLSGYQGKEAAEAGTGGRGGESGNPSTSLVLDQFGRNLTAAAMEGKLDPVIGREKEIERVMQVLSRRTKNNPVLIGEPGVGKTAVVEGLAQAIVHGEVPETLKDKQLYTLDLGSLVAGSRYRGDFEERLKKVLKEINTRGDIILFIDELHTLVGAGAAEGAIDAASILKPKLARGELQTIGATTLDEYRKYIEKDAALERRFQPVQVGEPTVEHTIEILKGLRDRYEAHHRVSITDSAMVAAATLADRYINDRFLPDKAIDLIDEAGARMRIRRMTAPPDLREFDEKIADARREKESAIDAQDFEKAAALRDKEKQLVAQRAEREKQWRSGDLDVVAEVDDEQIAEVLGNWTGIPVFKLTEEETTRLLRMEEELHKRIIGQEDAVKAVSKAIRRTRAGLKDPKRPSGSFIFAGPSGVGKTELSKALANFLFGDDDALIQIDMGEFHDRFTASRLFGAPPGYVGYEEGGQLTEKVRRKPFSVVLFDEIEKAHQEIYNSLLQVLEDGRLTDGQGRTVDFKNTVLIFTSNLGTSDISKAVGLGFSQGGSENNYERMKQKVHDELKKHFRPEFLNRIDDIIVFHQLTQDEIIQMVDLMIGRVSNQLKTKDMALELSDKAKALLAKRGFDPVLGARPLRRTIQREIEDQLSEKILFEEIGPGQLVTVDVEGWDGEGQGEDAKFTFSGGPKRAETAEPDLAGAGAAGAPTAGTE
# [6] = test system: Mycobacterium intracellulare; experiment: microbe, parasite or virus in culture; assay type: cell-based
# [7] = test system: Klebsiella pneumoniae; experiment: MIC ESKAPES panel, Klebsiella pneumoniae; assay type: cell-based
# Protocol: as §1
smiles,measurement,setting,value
"C#CCn1cc(C[C@@H]2NC(=O)[C@H](C(C)C)NC(=O)[C@H](CC(C)C)N(C)C(=O)[C@H](C(C)C)NC(=O)[C@H]([C@H](OC)c3ccccc3)NC(=O)[C@H](C)NC(=O)[C@H](C[C@@H](C)CO)N(C)C2=O)c2ccccc21 [Compound 5] (cyclo(A[Phe(βR-OMe)]V[NMeL]V[X1][NMeLeu(5-OH,4R)]))","Supplementary Figure 2 dose-response value, replicating H37Rv cells",[1]; Conc. 0.0976562 µM,93.0506 and 83.7138 and 106.369
same,"Supplementary Figure 2 dose-response value, replicating H37Rv cells",[1]; Conc. 0.195312 µM,80.9008 and 79.6239 and 83.1102
same,"Supplementary Figure 2 dose-response value, replicating H37Rv cells",[1]; Conc. 0.390625 µM,100.805 and 94.8498 and 103.432
same,"Supplementary Figure 2 dose-response value, replicating H37Rv cells",[1]; Conc. 0.78125 µM,90.0247 and 88.21 and 77.7086
same,"Supplementary Figure 2 dose-response value, replicating H37Rv cells",[1]; Conc. 1.5625 µM,89.1967 and 85.691 and 102.875
same,"Supplementary Figure 2 dose-response value, replicating H37Rv cells",[1]; Conc. 3.125 µM,81.2645 and 83.4662 and 77.6892
same,"Supplementary Figure 2 dose-response value, replicating H37Rv cells",[1]; Conc. 6.25 µM,79.2563 and 81.2993 and 97.3301
same,"Supplementary Figure 2 dose-response value, replicating H37Rv cells",[1]; Conc. 25 µM,23.3248 and 18.2173 and 22.7212
same,"Supplementary Figure 2 dose-response value, replicating H37Rv cells",[1]; Conc. 50 µM,9.562 and 6.199 and 9.0701
same,"Supplementary Figure 2 dose-response value, replicating H37Rv cells",[1]; Conc. 100 µM,10.3547 and 8.316 and 5.8624
same,MIC,"[2]; Mycolicibacterium smegmatis, 607, read-out: MIC Msm 607",25 µM
same,MIC,"[2]; Mycolicibacterium smegmatis, 607, read-out: MIC Msm #607, individual example (Supplementary Table 11)",25 µM and 23.5 µg/mL
same,MIC,"[2]; Mycolicibacterium smegmatis, 607, read-out: Msm 607 MIC, single determinations",25 µM
same,MIC,"[2]; Mycolicibacterium smegmatis, ATCC607, Set-1, read-out: MIC (Msm ATCC607) Set-1",12.5 µM and 11.8 µg/mL
same,MIC,"[2]; Mycolicibacterium smegmatis, ATCC607, Set-2, read-out: MIC (Msm ATCC607) Set-2",25 µM and 23.5 µg/mL
same,MIC,"[2]; Mycolicibacterium smegmatis, ATCC607, Set-3, done at a different day than Set 1 and Set 2, read-out: MIC (Msm ATCC607) Set-3",12.5 µM and 11.8 µg/mL
same,MIC,"[2]; Mycolicibacterium smegmatis, ATCC607, mean of 3 experiments ± SD, read-out: MIC including standard deviations (Msm ATCC607)",16.6 µM and 15.7 µg/mL
same,Microsomal Stability Mouse QH,[3]; Mouse,>88.400%
same,Microsomal Stability Mice,[3]; clearance in microsomes,> 88 %Qh
same,MIC,"[4]; Gram-Positive Bacteria, replicates 1-3",>50 µM
same,MIC,"[4]; Staphylococcus aureus, Gram positive, n = 3 well replicates",> 50 µM
same,MIC,"[4]; Staphylococcus aureus, Gram-Positive Bacteria, replicates 1-3",> 47 µg/mL
same,DC50,"[5]; Measurement 1-6, read-out: DC50, single measurements",> 100 µM
same,DC50,"[5]; mean of the measurements, read-out: DC50, Mean",> 100 µM
same,degradation of the His6-tagged ClpC1-NTD substrate,"[5]; cell-free, result in words",did not cause any degradation
same,% Response,[5]; conc. 0.4 µM,116.842% and 113.028% and 105.03% and 119.052% and 111.716% and 114.137% and 123.793% and 118.108% and 117.25%
same,ClpC1-NTD peak area,[5]; conc. 0.4 µM,640826 and 655003 and 1857813 and 1613203 and 1512289 and 674239 and 595770 and 768891 and 644662
same,% Response,[5]; conc. 33.3 µM,90.9541% and 97.3128% and 94.2061% and 106.414% and 99.6024% and 104.896% and 117.254% and 102.794% and 105.872%
same,ClpC1-NTD peak area,[5]; conc. 33.3 µM,584244 and 637952 and 1853168 and 1510772 and 1477984 and 564418 and 575020 and 543552 and 642219
same,% Response,[5]; conc. 100.0 µM,105.654% and 87.8451% and 96.6012% and 102.875% and 103.779% and 107.689% and 115.982% and 114.344% and 115.781%
same,ClpC1-NTD peak area,[5]; conc. 100.0 µM,756908 and 694227 and 2586172 and 1761383 and 2099655 and 509578 and 446745 and 481433 and 842128
same,MIC,"[6]; Experiment 1, read-out: MIC Mycobacterium intracellulare",6.3 µM
same,MIC (µg/ml) Mycobacterium intracellulare,"[6]; Experiment 2, three replicate columns",5.88 µg/mL
same,MIC,"[6]; Experiment 2, three replicate columns, read-out: MIC (µM) Mycobacterium intracellulare",6.25 µM
same,MIC,"[6]; Mycobacterium intracellulare, Experiment 1, read-out: MIC Mycobacterium intracellulare",5.9 µg/mL
same,MIC,"[6]; Mycobacterium intracellulare, Experiment 2, three replicate columns, read-out: MIC (µM) Mycobacterium intracellulare",6.25 µM
same,MIC,"[6]; Mycobacterium intracellulare, Experiment 2, three replicate columns, read-out: MIC (µg/ml) Mycobacterium intracellulare",5.88 µg/mL
same,MIC,"[6]; Mycobacterium intracellulare, mean ± SD, read-out: MIC Mycobacterium intracellulare",6.3 µM
same,MIC,"[7]; Gram-Negative Bacteria, replicates 1-3",>50 µM
same,MIC,"[7]; Klebsiella pneumoniae, Gram negative, n = 3 well replicates",> 50 µM
same,MIC,"[7]; Klebsiella pneumoniae, Gram-Negative Bacteria, replicates 1-3",> 47 µg/mL
